Experimental data: ChEMBL document CHEMBL4837250, “Discovery of LYC-55716: A Potent, Selective, and Orally Bioavailable Retinoic Acid Receptor-Related Orphan Receptor-γ (RORγ) Agonist for Use in Treating Cancer” (J Med Chem, 2021)
Values after ≈ are worked out from the molar mass of the structure shown.

Tests used:
[1] = target: T1, Nuclear receptor subfamily 1 group I member 2 (Homo sapiens, UniProt O75469)
T1 sequence (O75469 whole entry): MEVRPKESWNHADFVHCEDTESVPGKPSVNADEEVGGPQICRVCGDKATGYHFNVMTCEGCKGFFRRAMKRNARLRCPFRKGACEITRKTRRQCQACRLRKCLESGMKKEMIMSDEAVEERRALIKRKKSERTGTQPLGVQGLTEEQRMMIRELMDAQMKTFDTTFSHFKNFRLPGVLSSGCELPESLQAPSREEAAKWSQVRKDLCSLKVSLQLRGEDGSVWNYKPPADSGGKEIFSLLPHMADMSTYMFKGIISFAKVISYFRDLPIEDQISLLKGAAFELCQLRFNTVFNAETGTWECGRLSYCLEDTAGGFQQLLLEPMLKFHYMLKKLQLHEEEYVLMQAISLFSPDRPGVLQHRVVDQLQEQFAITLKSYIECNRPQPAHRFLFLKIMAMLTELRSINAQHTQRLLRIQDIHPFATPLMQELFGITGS
Description: Agonist activity at human PXR-gamma expressed in HEK293 cells assessed as transcriptional activity in presence of ursolic acid by Gal4-luciferase reporter assay

[2] = in vitro; conditions: human, hepatocytes
[3] = target: CYP3A4 (Homo sapiens, UniProt P08684); assay: in vitro; conditions: probe testosterone
Description: Inhibition of CYP3A4 (unknown origin) assessed as oxidation of testosterone at 10 uM

[4] = physchem; conditions: PBS buffer, pH 7.4
Description: Solubility of the compound in pH 7.4 PBS buffer

[5] = target: T2, Nuclear receptor ROR-gamma (Homo sapiens, UniProt P51449)
T2 sequence (P51449 whole entry): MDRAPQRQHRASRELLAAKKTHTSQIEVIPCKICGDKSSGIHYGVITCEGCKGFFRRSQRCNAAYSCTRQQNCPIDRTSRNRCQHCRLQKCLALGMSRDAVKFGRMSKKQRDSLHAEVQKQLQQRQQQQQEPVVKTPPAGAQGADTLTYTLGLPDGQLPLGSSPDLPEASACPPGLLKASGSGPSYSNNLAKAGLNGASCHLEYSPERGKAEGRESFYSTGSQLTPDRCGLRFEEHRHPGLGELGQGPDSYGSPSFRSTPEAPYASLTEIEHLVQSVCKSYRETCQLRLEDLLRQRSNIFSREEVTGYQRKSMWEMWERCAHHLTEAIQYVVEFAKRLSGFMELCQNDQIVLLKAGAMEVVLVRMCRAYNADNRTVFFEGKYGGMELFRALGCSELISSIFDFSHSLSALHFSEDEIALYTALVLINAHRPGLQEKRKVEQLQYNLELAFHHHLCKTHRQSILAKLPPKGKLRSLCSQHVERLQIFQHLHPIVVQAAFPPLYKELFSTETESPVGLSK
Description: Agonist activity at human His-tagged RORgamma-LBD expressed in Sf9 cells assessed as inhibition of N-terminal biotinylated co-activator SRC1 recruitment in presence of ursolic acid measured after 60 mins by FRET assay

[6] = target: T2, Nuclear receptor ROR-gamma; remark: listed apart in the source
Description: Agonist activity at human ROR-gamma LBD expressed in HEK293 cells assessed as transcriptional activity in presence of ursolic acid by Gal4-luciferase reporter assay

[7] = target: CYP2D6 (Homo sapiens, UniProt P10635); assay: in vitro; conditions: probe testosterone
CYP2D6, sequence (P10635 whole entry): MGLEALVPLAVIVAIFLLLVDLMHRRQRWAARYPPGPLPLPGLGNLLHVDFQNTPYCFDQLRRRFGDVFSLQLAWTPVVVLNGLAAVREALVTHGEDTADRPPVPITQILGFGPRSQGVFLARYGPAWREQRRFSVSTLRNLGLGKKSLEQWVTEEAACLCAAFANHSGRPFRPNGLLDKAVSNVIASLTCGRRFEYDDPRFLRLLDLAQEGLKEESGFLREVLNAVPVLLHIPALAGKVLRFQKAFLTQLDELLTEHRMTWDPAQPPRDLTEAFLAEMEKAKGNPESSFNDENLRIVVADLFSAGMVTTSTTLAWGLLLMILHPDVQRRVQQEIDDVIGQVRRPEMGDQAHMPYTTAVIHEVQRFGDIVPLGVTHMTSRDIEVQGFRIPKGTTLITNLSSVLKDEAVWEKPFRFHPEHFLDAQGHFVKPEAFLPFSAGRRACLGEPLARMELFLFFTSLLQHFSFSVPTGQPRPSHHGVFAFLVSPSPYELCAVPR
Description: Inhibition of CYP2D6 (unknown origin) assessed as oxidation of testosterone at 10 uM

CYP3A4, sequence (P08684 whole entry): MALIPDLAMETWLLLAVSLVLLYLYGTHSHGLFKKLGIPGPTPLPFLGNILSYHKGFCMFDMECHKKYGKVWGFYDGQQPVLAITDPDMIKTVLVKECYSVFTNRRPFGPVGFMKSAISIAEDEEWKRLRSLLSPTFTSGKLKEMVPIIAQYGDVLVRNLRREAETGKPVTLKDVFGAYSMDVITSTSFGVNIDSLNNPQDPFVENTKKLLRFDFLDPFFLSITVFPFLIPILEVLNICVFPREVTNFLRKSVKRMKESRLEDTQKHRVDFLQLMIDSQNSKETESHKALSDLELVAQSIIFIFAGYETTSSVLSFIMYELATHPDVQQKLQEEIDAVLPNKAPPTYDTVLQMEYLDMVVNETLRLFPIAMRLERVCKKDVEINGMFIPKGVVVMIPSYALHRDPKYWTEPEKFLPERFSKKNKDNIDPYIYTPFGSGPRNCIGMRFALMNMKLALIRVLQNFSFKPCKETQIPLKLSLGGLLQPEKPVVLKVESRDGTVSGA

Row | Structure (SMILES) | EC50 [1] [nM] | hepatocyte CLint [2] [µL/min/1e6 cells] | inhibition at 10 µM [3] [%] | solubility [4] [µM] | EC50 [5] [nM] | EC50 [6] [nM] | inhibition at 10 µM [7] [%]
1 | O=C(O)CC[C@H]1CN(S(=O)(=O)c2cccc(C(F)(F)F)c2)c2cc(/C=C/c3ccc(Cl)cc3F)ccc2O1 | > 10000 |  |  |  | 342 | > 10000 | 
2 | O=C(O)C1(C[C@H]2CN(S(=O)(=O)c3cccc(C(F)(F)F)c3)c3cc(-c4cc(F)ccc4F)ccc3O2)COC1 | 18000 |  |  | 201 (≈ 114 µg/mL) | 10 | 179 | 
3 | C/C(=C\c1ccc2c(c1)N(S(=O)(=O)c1cccc(C(F)(F)F)c1)C[C@H](CCC(=O)O)O2)c1c(Cl)cccc1Cl | > 10000 | 23 | 6 | 309 (≈ 186 µg/mL) | 435 | 487 | -1
4 | CC(C)(C[C@H]1CN(S(=O)(=O)c2cccc(C(F)(F)F)c2)c2cc(-c3cccc(Cl)c3F)ccc2O1)C(=O)O | > 10000 |  | 28.5 |  |  |  | 6
5 | C/C(=C\c1ccc2c(c1)N(S(=O)(=O)c1cccc(C(F)(F)F)c1)C[C@H](CCC(=O)O)O2)c1ccccc1C(F)(F)F | > 10000 | 23 | 18 | 260 (≈ 156 µg/mL) | 108 | 290 | 2
6 | C/C(=C\c1ccc2c(c1)N(S(=O)(=O)c1cccc(OC(F)F)c1)C[C@H](CCC(=O)O)O2)c1c(F)cccc1Cl | 9100 | 9.4 | 9 | 248 (≈ 144 µg/mL) | 195 | 280 | 2
7 | O=S(=O)(c1cccc(C(F)(F)F)c1)N1C[C@H](CC2(CO)COC2)Oc2ccc(Br)cc21 | > 10000 |  |  |  |  |  | 
8 | O=C(O)[C@@H](O)CC[C@H]1CN(S(=O)(=O)c2cccc(C(F)(F)F)c2)c2cc(-c3cc(F)ccc3F)ccc2O1 | > 10000 | 18 |  |  | 13 | 501 | 
9 | C[C@@H](C[C@H]1CN(S(=O)(=O)c2cccc(C(F)(F)F)c2)c2cc(-c3cc(F)ccc3F)ccc2O1)C(=O)O | > 10000 |  | 17 |  |  |  | 13
10 | COc1ccccc1/C(C)=C/c1ccc2c(c1)N(S(=O)(=O)c1cccc(C(F)(F)F)c1)C[C@H](CCC(=O)O)O2 | > 10000 | 33 | 19 | 183 (≈ 103 µg/mL) |  |  | 3
11 | COc1cc(S(=O)(=O)N2C[C@H](CCC(=O)O)Oc3ccc(/C=C(\C)c4c(F)cccc4Cl)cc32)ccc1F | > 10000 |  | -0.5 |  |  |  | 10
12 | C/C(=C\c1ccc2c(c1)N(S(=O)(=O)c1cccc(C(F)(F)F)c1)C[C@H](CCC(=O)O)O2)c1ccccc1C |  |  | 0 |  |  |  | -6
13 | O=C(O)CC[C@H]1CN(S(=O)(=O)c2cccc(C(F)(F)F)c2)c2cc(/C=C/c3c(F)cccc3Cl)ccc2O1 | > 10000 | 26 | 33 | 273 (≈ 156 µg/mL) | 33 | 617 | -5.6
14 | CC(C)c1ccc(-c2ccc3c(c2)N(S(=O)(=O)c2cccc(C(F)(F)F)c2)C[C@H](CCC(=O)O)O3)cc1 | > 10000 | 31 | -4 |  | 42 | > 10000 | 2
15 | C[C@H](C[C@H]1CN(S(=O)(=O)c2cccc(C(F)(F)F)c2)c2cc(-c3cc(F)ccc3F)ccc2O1)C(=O)O | > 10000 |  | 18 |  |  |  | 11
16 | C/C(=C\c1ccc2c(c1)N(S(=O)(=O)c1ccc(F)c(C3CC3)c1)C[C@H](CCC(=O)O)O2)c1c(F)cccc1Cl | 6700 | 11 | 4 | 250 (≈ 144 µg/mL) | 269 | 495 | 10
17 | C/C(=C\c1ccc2c(c1)N(S(=O)(=O)c1ccc(F)c(C(F)(F)F)c1)C[C@H](CCC(=O)O)O2)c1c(F)cccc1Cl | 6000 | 24 |  | 61 (≈ 36.7 µg/mL) | 85 | 411 | 
18 | O=C(O)[C@H](O)CC[C@H]1CN(S(=O)(=O)c2cccc(C(F)(F)F)c2)c2cc(-c3cc(F)ccc3F)ccc2O1 | > 10000 | 13 |  |  | 120 | 166 | 
19 | C/C(=C\c1ccc2c(c1)N(S(=O)(=O)c1cccc(C(F)(F)F)c1)C[C@H](CCC(=O)O)O2)c1ccccc1 | > 10000 | 22 | -3 | 267 (≈ 142 µg/mL) |  |  | 3
20 | C/C(=C\c1ccc2c(c1)N(S(=O)(=O)c1cccc(C(F)(F)F)c1)C[C@H](CCC(=O)O)O2)c1ccccc1Cl | > 10000 | 22 | 7 | 309 (≈ 175 µg/mL) |  |  | 13

Continued, values first:

Row | EC50 [1] [nM] | hepatocyte CLint [2] [µL/min/1e6 cells] | inhibition at 10 µM [3] [%] | solubility [4] [µM] | EC50 [5] [nM] | EC50 [6] [nM] | inhibition at 10 µM [7] [%] | Structure (SMILES)
21 | > 10000 | 31 | 25 | 277 (≈ 146 µg/mL) |  |  |  | O=C(O)CC[C@H]1CN(S(=O)(=O)c2cccc(C(F)(F)F)c2)c2cc(-c3cc(F)cc(F)c3)ccc2O1
22 | > 10000 |  | 5 |  |  |  | -6 | O=C(O)CC[C@H]1CN(S(=O)(=O)c2cccc(C(F)(F)F)c2)c2cc(-c3cc(F)cc(OC(F)F)c3)ccc2O1
23 | > 10000 |  | 19 |  |  |  | 0 | O=C(O)CC[C@H]1CN(S(=O)(=O)c2cccc(C(F)(F)F)c2)c2cc(-c3cccc(F)c3)ccc2O1
24 | > 10000 |  | 24 |  |  |  | 0 | O=C(O)CC[C@H]1CN(S(=O)(=O)c2cccc(C(F)(F)F)c2)c2cc(-c3cccc(Cl)c3)ccc2O1
25 | > 10000 | 36 | 19 | 287 (≈ 160 µg/mL) | 10 | 278 | 7 | O=C(O)CC[C@H]1CN(S(=O)(=O)c2cccc(C(F)(F)F)c2)c2cc(-c3cccc(OC(F)F)c3)ccc2O1
26 | > 10000 | 44 | 19 | 280 (≈ 146 µg/mL) |  |  | 2 | COc1cccc(-c2ccc3c(c2)N(S(=O)(=O)c2cccc(C(F)(F)F)c2)C[C@H](CCC(=O)O)O3)c1
27 | > 10000 | 27 | 15 | 239 (≈ 130 µg/mL) | 145 | 124 | 6 | O=C(O)CC[C@H]1CN(S(=O)(=O)c2cccc(C(F)(F)F)c2)c2cc(-c3cc(F)ccc3Cl)ccc2O1
28 |  | 38 | 14 | 15 (≈ 7.89 µg/mL) | 27 |  | -2 | O=C(O)CC[C@H]1CN(S(=O)(=O)c2cccc(C(F)(F)F)c2)c2cc(-c3ccc(Cl)cc3)ccc2O1
29 | > 10000 |  |  |  |  |  |  | COc1cc(F)cc(-c2ccc3c(c2)N(S(=O)(=O)c2cccc(C(F)(F)F)c2)C[C@H](CCC(=O)O)O3)c1
30 | > 10000 | 31 | 13 | 227 (≈ 120 µg/mL) | 8 | 181 | 1 | O=C(O)CC[C@H]1CN(S(=O)(=O)c2cccc(C(F)(F)F)c2)c2cc(-c3cc(F)ccc3F)ccc2O1
31 | > 10000 |  |  |  | > 10000 | > 10000 |  | O=C(O)CC[C@H]1CN(S(=O)(=O)c2cccc(C(F)(F)F)c2)c2cc(-c3cccc(OCCO)c3)ccc2O1
